# Measured values taken from ChEMBL document CHEMBL1201862, “PubChem BioAssay data set” (2004).
# Calls of active or inactive are those of the source.
# What was measured:
# [1] = HEK-293T viability loss after treatment – luminescence, T-cell screen hits, cytotoxicity control for TCR NF-kB inhibitor project, dose response (AID 489026); format: functional, cell-based;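 further: cells exposed to compound about 14 hours before the viability readout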
# Mucolipin-3 = Mucolipin-3 (Homo sapiens, UniProt Q8TDD5); assay: Fluorescence counterscreen assay for […] agonists: dose response cell-based high-throughput screening assay to identify agonists of the transient receptor potential channel ML3 (TRPML3). [Related pubchem assays: 1424, 1448 ]; format: functional
# Ion channel NompC = Ion channel NompC (Danio rerio, UniProt Q7T1G6); assay: Dose response cell-based high-throughput screening assay for agonists of the transient receptor potential channel N1 (TRPN1). [Related pubchem assays (depositor defined):AID1424, AID1448]; format: functional
# [2] = target: Lysine-specific demethylase 4A (Homo sapiens, UniProt O75164); assay: inhibition of JMJD2A H3K9me3 demethylation – biochemical, DELFIA europium, cherry-picked samples, selectivity assay for GASC-1 inhibitor project, dose response (AID 488840)
# Hexokinase HKDC1 = target: T1, Hexokinase HKDC1 (Homo sapiens, UniProt Q2TB90); assay: inhibition of HKDC1 glucose phosphorylation – biochemical, W721R variant, dose response (AID 504729); format: functional
# T1 sequence (Q2TB90 whole entry): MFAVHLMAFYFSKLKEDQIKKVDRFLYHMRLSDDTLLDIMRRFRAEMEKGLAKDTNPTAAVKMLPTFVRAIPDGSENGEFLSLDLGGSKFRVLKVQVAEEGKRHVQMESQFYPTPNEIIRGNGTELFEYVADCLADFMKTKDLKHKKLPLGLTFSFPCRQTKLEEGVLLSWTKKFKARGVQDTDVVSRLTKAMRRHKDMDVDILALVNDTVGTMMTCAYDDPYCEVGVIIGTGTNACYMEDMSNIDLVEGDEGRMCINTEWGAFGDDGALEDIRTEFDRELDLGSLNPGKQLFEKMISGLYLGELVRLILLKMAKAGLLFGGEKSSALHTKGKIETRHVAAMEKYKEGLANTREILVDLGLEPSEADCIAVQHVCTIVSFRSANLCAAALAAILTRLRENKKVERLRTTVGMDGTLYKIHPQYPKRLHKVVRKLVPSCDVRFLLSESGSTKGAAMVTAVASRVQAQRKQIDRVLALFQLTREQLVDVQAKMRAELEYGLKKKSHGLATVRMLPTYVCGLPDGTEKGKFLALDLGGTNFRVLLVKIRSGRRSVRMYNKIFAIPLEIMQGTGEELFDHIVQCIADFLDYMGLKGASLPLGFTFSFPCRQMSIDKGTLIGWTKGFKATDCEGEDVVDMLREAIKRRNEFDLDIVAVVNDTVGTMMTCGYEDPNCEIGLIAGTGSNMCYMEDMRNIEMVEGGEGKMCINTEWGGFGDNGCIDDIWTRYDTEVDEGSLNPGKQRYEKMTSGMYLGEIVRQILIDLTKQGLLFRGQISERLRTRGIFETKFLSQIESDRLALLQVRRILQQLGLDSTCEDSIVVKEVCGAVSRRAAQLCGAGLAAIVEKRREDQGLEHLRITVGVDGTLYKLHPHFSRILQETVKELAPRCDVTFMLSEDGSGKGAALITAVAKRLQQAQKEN
# [3] = target: T2, Runt-related transcription factor 1/Core-binding factor subunit beta (Homo sapiens, UniProt Q01196+Q13951); assay: disruptors of Runt domain/CBFb-SMMHC interaction – biochemical, FRET, Cerulean-Runt, Venus-CBFb-SMMHC, uHTS, […] (AID 1434); format: protein assay
# [4] = target: T3, Polyadenylate-binding protein 1 (Homo sapiens, UniProt P11940); assay: MLLE domain peptide-binding blockers, IC50 – biochemical, fluorescence polarization, FITC-PAM2 peptide, dose response (AID 602259); format: functional; conditions: read-out: IC50_Mean
# [5] = target: T2, Runt-related transcription factor 1/Core-binding factor subunit beta; assay: Runt domain/CBFb-SMMHC interaction disruptors – biochemical, TR-FRET (AID 1438); format: protein assay
# [6] = target: T3, Polyadenylate-binding protein 1; assay: MLLE binding blockers, Cy5 peptide tracer – biochemical, fluorescence polarization, Cy5-PAM2 peptide, secondary, miRNA deadenylation inhibitor project, dose response (AID 602260); format: functional; conditions: read-out: IC50_Mean
# Protein Tat = Protein Tat (Human immunodeficiency virus type 1 group M subtype B (isolate HXB2)(HIV-1), UniProt P04608); format: functional;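 further: tat binding to TAR RNA read out by fluorescence polarization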
# Coagulation factor XII = target: T4, Coagulation factor XII (Homo sapiens, UniProt P00748); assay: Factor XIIa Dose Response Confirmation from Single Well HTS. [Related pubchem assays (depositor defined):AID701]; format: functional
# T4 sequence (P00748 whole entry): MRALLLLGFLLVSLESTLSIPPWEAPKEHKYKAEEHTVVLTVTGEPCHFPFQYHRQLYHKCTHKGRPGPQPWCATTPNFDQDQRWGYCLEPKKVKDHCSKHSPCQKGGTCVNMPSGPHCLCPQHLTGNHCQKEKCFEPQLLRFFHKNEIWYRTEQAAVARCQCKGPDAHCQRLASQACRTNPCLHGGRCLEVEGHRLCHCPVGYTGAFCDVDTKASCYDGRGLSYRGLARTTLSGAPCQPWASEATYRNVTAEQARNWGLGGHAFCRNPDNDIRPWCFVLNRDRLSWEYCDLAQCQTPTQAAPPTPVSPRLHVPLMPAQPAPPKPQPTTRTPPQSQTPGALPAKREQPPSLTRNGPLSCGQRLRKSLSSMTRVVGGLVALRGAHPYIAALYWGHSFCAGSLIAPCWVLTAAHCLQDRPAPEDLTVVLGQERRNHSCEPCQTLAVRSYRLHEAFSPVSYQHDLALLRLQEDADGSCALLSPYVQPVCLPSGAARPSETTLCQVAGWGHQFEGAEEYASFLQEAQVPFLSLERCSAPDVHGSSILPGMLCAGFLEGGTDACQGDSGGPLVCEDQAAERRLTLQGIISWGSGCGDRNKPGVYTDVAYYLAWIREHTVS
# Genome polyprotein = Genome polyprotein (dengue virus type 2, UniProt P29990); assay: flavivirus cap methylation enzyme inhibition – biochemical, confirmation dose response, primary screen (AID 588689); format: functional
# [7] = target: Sphingosine 1-phosphate receptor 3 (Homo sapiens, UniProt Q99500); assay: Late stage counterscreen assay for S1P4 antagonists: Fluorescence dose response cell-based screening assay for antagonists of the Sphingosine 1-Phosphate Receptor 3 (S1P3). [Related pubchem assays (depositor defined):AID1510, AID1524, AID1692, AID1853, AID2332, AID489009, AID489017]; format: functional
# [8] = target: Sphingosine 1-phosphate receptor 5 (Homo sapiens, UniProt Q9H228); assay: Late stage counterscreen assay for S1P4 antagonists: Fluorescence dose response cell-based screening assay for antagonists of the Sphingosine 1-Phosphate Receptor 5 (S1P5). [Related pubchem assays (depositor defined):AID1510, AID1524, AID1692, AID1853, AID2332, AID489009, AID489017]; format: functional
# [9] = target: Sphingosine 1-phosphate receptor 1 (Homo sapiens, UniProt P21453); assay: Late stage counterscreen assay for S1P4 antagonists: Fluorescence dose response cell-based screening assay for antagonists of the Sphingosine 1-Phosphate Receptor 1 (S1P1). [Related pubchem assays (depositor defined):AID1510, AID1524, AID1692, AID1853, AID2332, AID489009, AID489017]; format: functional
# [10] = target: Sphingosine 1-phosphate receptor 2 (Homo sapiens, UniProt O95136); assay: Late stage counterscreen assay for S1P4 antagonists: Fluorescence dose response cell-based screening assay for antagonists of the Sphingosine 1-Phosphate Receptor 2 (S1P2). [Related pubchem assays (depositor defined):AID1510, AID1524, AID1692, AID1853, AID2332, AID489009, AID489017]; format: functional
# Sequence of Sphingosine 1-phosphate receptor 2 (O95136 whole entry): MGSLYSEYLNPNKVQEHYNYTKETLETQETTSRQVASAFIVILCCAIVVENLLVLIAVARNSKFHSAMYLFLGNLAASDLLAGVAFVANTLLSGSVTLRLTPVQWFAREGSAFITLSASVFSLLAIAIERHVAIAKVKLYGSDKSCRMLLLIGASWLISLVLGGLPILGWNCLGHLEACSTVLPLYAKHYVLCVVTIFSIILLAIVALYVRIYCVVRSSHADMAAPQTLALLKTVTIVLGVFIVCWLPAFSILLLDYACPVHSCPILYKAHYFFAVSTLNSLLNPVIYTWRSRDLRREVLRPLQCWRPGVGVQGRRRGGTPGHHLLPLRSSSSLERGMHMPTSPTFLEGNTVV
# T3 sequence (P11940 whole entry, the tested form may be a part): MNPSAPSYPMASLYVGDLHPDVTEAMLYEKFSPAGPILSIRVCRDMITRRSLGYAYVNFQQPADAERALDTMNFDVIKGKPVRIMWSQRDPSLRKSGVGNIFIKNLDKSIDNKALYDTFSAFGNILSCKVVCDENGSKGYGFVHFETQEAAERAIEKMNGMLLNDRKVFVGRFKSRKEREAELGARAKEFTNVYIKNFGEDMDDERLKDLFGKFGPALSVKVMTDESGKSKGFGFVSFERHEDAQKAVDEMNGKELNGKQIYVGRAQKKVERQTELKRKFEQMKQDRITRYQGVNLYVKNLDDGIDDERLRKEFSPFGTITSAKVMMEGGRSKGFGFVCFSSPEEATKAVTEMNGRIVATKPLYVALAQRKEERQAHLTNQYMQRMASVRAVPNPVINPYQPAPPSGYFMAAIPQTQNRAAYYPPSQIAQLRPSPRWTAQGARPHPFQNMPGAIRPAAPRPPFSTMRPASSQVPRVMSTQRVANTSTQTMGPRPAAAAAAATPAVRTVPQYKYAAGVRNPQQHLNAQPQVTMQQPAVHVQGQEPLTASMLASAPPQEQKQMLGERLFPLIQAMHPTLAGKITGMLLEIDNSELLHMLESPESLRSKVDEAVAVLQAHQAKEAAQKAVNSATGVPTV
# T2 sequence (Q01196 whole entry, the tested form may be a part): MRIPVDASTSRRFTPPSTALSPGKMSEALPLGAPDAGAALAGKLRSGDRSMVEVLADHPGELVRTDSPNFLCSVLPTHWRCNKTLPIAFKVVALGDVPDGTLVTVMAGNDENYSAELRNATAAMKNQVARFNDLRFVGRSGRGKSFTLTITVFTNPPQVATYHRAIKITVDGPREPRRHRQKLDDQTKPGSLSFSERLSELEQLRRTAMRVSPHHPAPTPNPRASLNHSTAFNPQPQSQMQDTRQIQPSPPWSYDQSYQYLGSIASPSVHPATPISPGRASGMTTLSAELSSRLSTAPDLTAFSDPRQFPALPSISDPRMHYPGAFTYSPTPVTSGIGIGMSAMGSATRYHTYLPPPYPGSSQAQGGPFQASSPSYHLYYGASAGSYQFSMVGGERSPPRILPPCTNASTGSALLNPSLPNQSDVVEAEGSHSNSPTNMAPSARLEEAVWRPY
# T2 sequence (Q13951 whole entry, the tested form may be a part): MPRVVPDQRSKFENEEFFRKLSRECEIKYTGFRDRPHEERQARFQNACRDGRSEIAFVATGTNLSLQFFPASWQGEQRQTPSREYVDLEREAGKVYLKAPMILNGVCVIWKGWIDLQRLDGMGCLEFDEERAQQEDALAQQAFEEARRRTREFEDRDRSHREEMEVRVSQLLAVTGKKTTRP
# Sequence of Lysine-specific demethylase 4A (O75164 whole entry): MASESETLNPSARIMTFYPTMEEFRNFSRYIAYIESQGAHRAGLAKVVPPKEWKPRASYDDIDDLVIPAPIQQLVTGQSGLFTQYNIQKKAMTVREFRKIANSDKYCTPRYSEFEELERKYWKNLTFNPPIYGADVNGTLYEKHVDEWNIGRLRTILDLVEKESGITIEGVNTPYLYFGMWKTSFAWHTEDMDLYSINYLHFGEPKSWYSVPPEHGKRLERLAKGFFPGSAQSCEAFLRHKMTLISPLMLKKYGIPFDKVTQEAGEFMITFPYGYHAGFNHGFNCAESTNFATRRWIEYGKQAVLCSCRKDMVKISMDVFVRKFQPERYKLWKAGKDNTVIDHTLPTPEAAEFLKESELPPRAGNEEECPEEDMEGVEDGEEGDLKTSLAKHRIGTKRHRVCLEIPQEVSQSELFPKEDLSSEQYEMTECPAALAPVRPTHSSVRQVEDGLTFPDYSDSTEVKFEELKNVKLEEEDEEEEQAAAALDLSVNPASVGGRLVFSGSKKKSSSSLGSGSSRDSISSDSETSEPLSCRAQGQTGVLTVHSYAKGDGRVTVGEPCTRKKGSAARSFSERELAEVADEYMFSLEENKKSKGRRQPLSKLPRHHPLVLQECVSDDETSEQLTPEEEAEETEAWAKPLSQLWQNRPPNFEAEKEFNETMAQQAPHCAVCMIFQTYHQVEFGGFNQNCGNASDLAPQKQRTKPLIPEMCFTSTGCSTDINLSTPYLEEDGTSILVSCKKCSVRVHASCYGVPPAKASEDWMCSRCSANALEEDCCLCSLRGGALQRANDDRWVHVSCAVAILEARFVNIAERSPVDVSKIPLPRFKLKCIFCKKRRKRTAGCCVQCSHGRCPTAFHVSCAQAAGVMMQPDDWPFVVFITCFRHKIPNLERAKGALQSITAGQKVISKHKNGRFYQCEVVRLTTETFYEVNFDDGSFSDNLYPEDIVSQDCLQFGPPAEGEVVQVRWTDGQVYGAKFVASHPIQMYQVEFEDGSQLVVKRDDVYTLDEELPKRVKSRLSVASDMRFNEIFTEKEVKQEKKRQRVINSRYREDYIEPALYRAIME
# Sequence of Genome polyprotein (P29990 2492-3391 limits assumed): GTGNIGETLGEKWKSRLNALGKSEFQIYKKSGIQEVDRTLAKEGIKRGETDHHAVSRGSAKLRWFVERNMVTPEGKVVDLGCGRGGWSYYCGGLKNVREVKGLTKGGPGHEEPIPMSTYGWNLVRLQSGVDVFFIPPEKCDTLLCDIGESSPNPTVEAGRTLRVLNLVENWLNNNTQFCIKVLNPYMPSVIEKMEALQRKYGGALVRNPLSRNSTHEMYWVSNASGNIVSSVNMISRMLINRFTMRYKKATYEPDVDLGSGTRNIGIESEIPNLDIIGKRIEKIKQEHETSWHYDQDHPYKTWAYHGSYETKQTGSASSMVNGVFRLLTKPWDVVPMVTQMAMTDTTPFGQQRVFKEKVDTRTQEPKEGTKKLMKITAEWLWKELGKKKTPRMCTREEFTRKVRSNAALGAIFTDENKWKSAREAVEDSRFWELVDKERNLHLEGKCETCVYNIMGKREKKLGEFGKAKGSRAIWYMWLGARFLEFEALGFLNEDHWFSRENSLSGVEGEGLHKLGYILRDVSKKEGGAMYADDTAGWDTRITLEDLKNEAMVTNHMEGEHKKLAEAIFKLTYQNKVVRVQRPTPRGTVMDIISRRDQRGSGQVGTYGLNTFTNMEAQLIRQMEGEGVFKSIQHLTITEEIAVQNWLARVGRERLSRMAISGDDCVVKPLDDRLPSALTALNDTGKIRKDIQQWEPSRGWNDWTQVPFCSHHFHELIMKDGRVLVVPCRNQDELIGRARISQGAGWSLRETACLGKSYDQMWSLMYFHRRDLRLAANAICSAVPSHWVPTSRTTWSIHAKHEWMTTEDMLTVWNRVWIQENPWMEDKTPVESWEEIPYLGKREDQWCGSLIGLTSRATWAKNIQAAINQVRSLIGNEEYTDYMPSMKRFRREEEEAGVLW
# Sequence of Sphingosine 1-phosphate receptor 3 (Q99500 whole entry): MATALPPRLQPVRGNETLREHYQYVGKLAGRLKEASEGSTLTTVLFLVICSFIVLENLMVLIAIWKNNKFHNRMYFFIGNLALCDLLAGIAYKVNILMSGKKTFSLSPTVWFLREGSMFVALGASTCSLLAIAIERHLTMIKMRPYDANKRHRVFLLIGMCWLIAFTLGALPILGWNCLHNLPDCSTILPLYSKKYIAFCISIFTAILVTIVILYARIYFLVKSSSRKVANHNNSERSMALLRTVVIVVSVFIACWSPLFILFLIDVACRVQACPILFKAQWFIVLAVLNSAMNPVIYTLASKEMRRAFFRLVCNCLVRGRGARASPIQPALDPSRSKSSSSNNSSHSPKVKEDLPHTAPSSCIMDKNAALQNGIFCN
# Sequence of Sphingosine 1-phosphate receptor 5 (Q9H228 whole entry): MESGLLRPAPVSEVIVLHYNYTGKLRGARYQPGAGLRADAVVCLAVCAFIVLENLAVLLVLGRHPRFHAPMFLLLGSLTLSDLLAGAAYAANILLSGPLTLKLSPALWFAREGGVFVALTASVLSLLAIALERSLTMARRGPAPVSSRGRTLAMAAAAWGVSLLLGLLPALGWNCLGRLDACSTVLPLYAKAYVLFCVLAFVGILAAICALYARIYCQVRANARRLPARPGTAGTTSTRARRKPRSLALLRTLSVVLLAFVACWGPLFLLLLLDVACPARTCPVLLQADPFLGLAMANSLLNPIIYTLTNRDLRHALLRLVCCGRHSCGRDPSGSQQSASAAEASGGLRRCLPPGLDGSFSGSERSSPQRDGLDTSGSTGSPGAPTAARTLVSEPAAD
# Sequence of Sphingosine 1-phosphate receptor 1 (P21453 whole entry): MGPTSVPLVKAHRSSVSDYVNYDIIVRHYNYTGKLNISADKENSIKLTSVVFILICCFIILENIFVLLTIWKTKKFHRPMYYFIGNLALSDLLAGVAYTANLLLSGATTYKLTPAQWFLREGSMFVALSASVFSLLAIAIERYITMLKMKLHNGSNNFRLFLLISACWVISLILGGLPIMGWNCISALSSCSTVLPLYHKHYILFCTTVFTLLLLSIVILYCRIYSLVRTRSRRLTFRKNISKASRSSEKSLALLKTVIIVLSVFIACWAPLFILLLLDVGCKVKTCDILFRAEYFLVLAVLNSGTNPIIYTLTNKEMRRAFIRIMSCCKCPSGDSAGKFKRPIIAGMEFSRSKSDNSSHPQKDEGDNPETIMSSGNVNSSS
# Sequence of Protein Tat (P04608 whole entry): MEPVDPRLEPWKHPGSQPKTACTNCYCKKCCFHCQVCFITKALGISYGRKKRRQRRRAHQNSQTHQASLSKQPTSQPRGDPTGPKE
structure (smiles),measurement,setting,value
O=C(Nc1ccc(S(=O)(=O)Nc2ccccc2)cc1)c1ccc(CN2CCOCC2)cc1,IC50,[1],48.1 µM (inactive)
same,EC50,Mucolipin-3,> 29.9 µM (not active)
same,EC50,Ion channel NompC,> 29.9 µM (inactive)
COc1ccc(N2CCN(C(=O)CSc3nnc(-c4cccnc4)n3-c3ccccc3)CC2)cc1,AC50,[2],> 60 µM (inactive)
COc1ccc(N2C3=C(CC4=C2CCCC4=O)C(=O)CCC3)cc1,IC50,Hexokinase HKDC1,8.05 µM (active)
same,IC50,[3],0.372 µM (active)
same,IC50,[4],> 66 µM (inactive)
same,IC50,[5],17.7 µM (active)
same,IC50,[6],> 66 µM (inactive)
same,IC50,Protein Tat,> 100 µM (active)
O=C1C(Cl)=C(N2CCOCC2)C(=O)N1c1ccccc1,IC50,Coagulation factor XII,> 50 µM (inactive)
same,IC50,Genome polyprotein,18.7 µM (active)
Cc1cccc(Cl)c1NC(=O)c1ccc(-c2cc(Cl)ccc2Cl)o1,IC50,[7],> 25 µM (inactive)
same,IC50,[8],> 25 µM (inactive)
same,IC50,[9],> 25 µM (inactive)
same,IC50,[10],9.5 µM (active)
